Structures can show the parent of a compound that is named as a salt. Where two headings read alike, the source gives them in different places.
What was measured:
[1] = Description: Polyoxyethylene stearyl ethers, 3 wt. %
Polyoxypropylene fatty alcohol ethers, 3 wt. %
Deionized water, 94 wt. %
Further, in all cases, unless otherwise noted, the tests were carried out at 37° C. and results were compared to penetration data for the same material in the oil/water emulsion base. Moreover, all percentages of composition components recited are, unless otherwise indicated, weight percent (wt. %) and are based upon the total weight of the composition.
The test method is carried out as follows:
A. Prior to testing, rats are routinely acclimated to the laboratory environment for seven days and gross observations are made to ensure good health of the animals to be tested.
B. Female Sprague Dawley rats (190-240 gm) are selected for testing and identified by cage label and ear tag number.
C. Diffusion Cell Preparation.
1. An O-ring is placed on a standard Franz Diffusion Cell. A stir bar is placed in the receptor compartment. Each cell is filled with approximately 4.5 ml sterile physiologic saline (receptor compartments are calibrated to contain 5.0 ml).
2. The jacketed diffusion cells are maintained at 37° C.±1° (or alternatively desired temperature) using an external water bath and a circulating pump.
D. Skin Section Preparation and Mounting
1. Test animals are sacrificed by intraperitoneal injection of 0.4 ml/100 gm. body weight sodium pentobarital (1 gm/ml).
2. The backs are lightly shaved using electric hair clippers.
3. A section of skin, measuring approximately 8 cm long by 7 cm wide, is removed from the back of each rat using a No. 20 scalpel assuring that the skin section is free from subcutaneous fat.
4. A piece of the skin section is mounted over an O-ring on the diffusion cell, epidermal side facing up. The donor compartment is placed on top of the skin section making a complete seal over the skin. A clamp is used to secure the skin section in place.
5. Air bubbles that collect under the skin are removed by inverting the diffusion cell and tapping it gently. The receptor compartment is filled with sterile physiologic saline to 5.0 ml.
E. Application of Test Materials
1. Test and control materials are applied to the skin using s syringe or spatula. The material is spread evenly and completely over the exposed skin surface using the tip of the syringe/spatula.
1. An HPLC carousel is loaded with microvials. Springs and inserts are placed into the microvials.
2. Receptor compartments are sampled at desired time intervals using a microliter (μl) syringe. The sample (approximately 160 μl) is placed into the insert. The microvial is sealed with a plastic cap.
3. When multiple sampling is required, the receptor compartment is replenished with sterile physiologic saline to maintain a 5.0 ml volume.
Samples are analyzed using standard analytical techniques. The presence of test material in the samples is indicative of transdermal penetration.

[2] = Pig skin (in vitro) transdermal penetration; assay type: in vitro ADME, Yucatan miniature pig; conditions: 0.5% IMI in saturated aqueous TPL solution
Description: The test procedure is as described for rat skin studies with the exception that excised pig skin samples from Yucatan miniature pigs are utilized.
To address this issue, in vitro skin penetration of tripelennamine (TPL) in 2 saturated aqueous solutions, was measured using pig skin in accordance with the Pig Skin (in vitro) procedure earlier outlined. One solution contained 0.5% IMI. The other solution served as an aqueous control (buffered with NaOH to the same pH as the IMI containing solution).
Since all skin sections are dermatomed to 380 microns, h is a constant. In each composition of Table 5, the vehicle was saturated with the pharmacologic agent. Therefore, the "leaving tendency", or the thermodynamic activity of the pharmacologic agent in the vehicle, remained unchanged (K is the same for both compositions). this means that D must increase in order to explain the 3-fold increase in transdermal penetration. This is indicative of a true enhancement effect of topically applied IMI. The results of Table 5, substantiate that IMI acts as a true skin penetration enhancer. […] This may be one reason why use of a transdermal penetration enhancing amount of a selected imidazole or imidazole derivative of the present invention, in conjunction with a pharmacologically active agent whose transdermal penetration is capable of being enhanced, affords the advantageous enhancement of penetration achieved by the present invention.

[3] = 2% TPL in B with 0.5% imidazole derivative, Table 2, average of multiple determinations
[4] = multiple of average control determination of the same study, 2% TPL in B with 0.5% imidazole derivative, Table 2

## 1-cyanoethyl-2-phenylimidazole [1-CYANOETHYL-2-PHENYL IMIDAZOLE]
[1]; [3]
  24 hour penetration of tripelennamine HCl (total micrograms base): 310 micrograms base
[1]; [4]
  Increase in penetration relative to control: 2.6

## Cc1nccn1C [1-2 DIMETHYL IMIDAZOLE, 1,2-dimethylimidazole]
[1]
  24 hour penetration of tripelennamine HCl (total micrograms base): 374 micrograms base
  Increase in penetration relative to control: 4.3

## CC(C)=CCCC(C)=CCn1ccnc1 [1-(3,7-dimethyl-2,6-octadienyl) imidazole]
[1]
  24 hour penetration of tripelennamine HCl (total micrograms base): 479 micrograms base
  Increase in penetration relative to control: 2.6

## c1ccc(Cn2ccnc2)cc1 [1-BENZYL IMIDAZOLE]
[1]; [3]
  24 hour penetration of tripelennamine HCl (total micrograms base): 277 micrograms base
[1]; [4]
  Increase in penetration relative to control: 1.1

## Cc1nccn1Cc1ccccc1 [1-BENZYL-2-METHYL IMIDAZOLE]
[1]
  24 hour penetration of tripelennamine HCl (total micrograms base): 463 micrograms base
  Increase in penetration relative to control: 1.8

## CCCCn1ccnc1 [1-BUTYL IMIDAZOLE]
[1]
  24 hour penetration of tripelennamine HCl (total micrograms base): 497 micrograms base
  Increase in penetration relative to control: 2.1

## CCCCCCCCCCn1ccnc1 [1-DECYL IMIDAZOLE]
[1]
  24 hour penetration of tripelennamine HCl (total micrograms base): 446 micrograms base
  Increase in penetration relative to control: 3.7

## CCCCCCCCCCCCn1ccnc1 [1-DODECYL IMIDAZOLE]
[1]
  24 hour penetration of tripelennamine HCl (total micrograms base): 479 micrograms base
  Increase in penetration relative to control: 4.0

## CC(C)n1ccnc1 [1-ISOPROPYL IMIDAZOLE]
[1]
  24 hour penetration of tripelennamine HCl (total micrograms base): 527 micrograms base
  Increase in penetration relative to control: 2.9

## Cn1ccnc1 [1-METHYL IMIDAZOLE]
[1]; [3]
  24 hour penetration of tripelennamine HCl (total micrograms base): 728 micrograms base
[1]; [4]
  Increase in penetration relative to control: 3.0

## c1ccc(-n2ccnc2)cc1 [1-PHENYL IMIDAZOLE]
[1]; [3]
  24 hour penetration of tripelennamine HCl (total micrograms base): 450 micrograms base
[1]; [4]
  Increase in penetration relative to control: 1.8

## Cc1ncc[nH]1 [2-METHYL IMIDAZOLE]
[1]
  24 hour penetration of tripelennamine HCl (total micrograms base): 615 micrograms base
  Increase in penetration relative to control: 2.6

## c1ccc(-c2ncc[nH]2)cc1 [2-PHENYL IMIDAZOLE]
[1]; [3]
  24 hour penetration of tripelennamine HCl (total micrograms base): 435 micrograms base
[1]; [4]
  Increase in penetration relative to control: 1.7

## CCCc1ncc[nH]1 [2-PROPYL IMIDAZOLE]
[1]
  24 hour penetration of tripelennamine HCl (total micrograms base): 554 micrograms base
  Increase in penetration relative to control: 2.2

## CCCCCCCCCCCCCCCCCc1ncc[nH]1 [2-[…]]
[1]; [3]
  24 hour penetration of tripelennamine HCl (total micrograms base): 358 micrograms base
[1]; [4]
  Increase in penetration relative to control: 1.5

## Cc1nc[nH]c1CO [4-(HYDROXYMETHYL) 5-METHYL IMIDAZOLE]
[1]
  24 hour penetration of tripelennamine HCl (total micrograms base): 149 micrograms base
  Increase in penetration relative to control: 1.2

## NNC(=O)c1c[nH]cn1 [4-CARBOXYLIC ACID HYDRAZIDE IMIDAZOLE]
[1]; [3]
  24 hour penetration of tripelennamine HCl (total micrograms base): 143 micrograms base
[1]; [4]
  Increase in penetration relative to control: 1.7

## OCc1c[nH]cn1 [4-HYD[…], 4-hydroxymethyl imidazole]
[1]; [3]
  24 hour penetration of tripelennamine HCl (total micrograms base): 224 micrograms base
[1]; [4]
  Increase in penetration relative to control: 3.2

## Cc1c[nH]cn1 [4-METHYL IMIDAZOLE]
[1]; [3]
  24 hour penetration of tripelennamine HCl (total micrograms base): 477 micrograms base
[1]; [4]
  Increase in penetration relative to control: 3.9

## O=[N+]([O-])c1c[nH]cn1 [4-NITRO IMIDAZOLE]
[1]
  24 hour penetration of tripelennamine HCl (total micrograms base): 142 micrograms base
  Increase in penetration relative to control: 1.2

## c1ccc(-c2c[nH]cn2)cc1 [4-PHENYL IMIDAZOLE]
[1]; [3]
  24 hour penetration of tripelennamine HCl (total micrograms base): 368 micrograms base
[1]; [4]
  Increase in penetration relative to control: 3.0

## CC(=O)Oc1ccccc1C(=O)O [ASA, ASPIRIN, reference compound]
[1]
  24 hour penetration (total micrograms base): 87.5 micrograms base

## N[C@H](Cc1c[nH]cn1)C(=O)O [D-HISTIDINE, D-histidine]
[1]
  24 hour penetration of tripelennamine HCl (total micrograms base): 197 micrograms base
  Increase in penetration relative to control: 2.8

## COc1ccc2c(c1)[C@]13CCCC[C@@H]1[C@H](C2)N(C)CC3 [DEX, DEXTRO[…], HBR, reference compound]
[1]; B + 2% DEX + 0.5% IPM + 0.5% IMI, Table 3 Study VIII
  24 hour penetration (total micrograms base): 360 micrograms base
[1]; control: 2% of the drug alone in B, Table 3
  24 hour penetration (total micrograms base): 124 micrograms base
[1]; multiple of average control determination, B + 2% DEX + 0.5% IPM + 0.5% IMI, Table 3 Study VIII
  Increase in penetration relative to control: 2.9

## NS(=O)(=O)c1cc2c(cc1Cl)NCNS2(=O)=O [HCTZ, HYDROCHLOROTHIAZIDE, reference compound]
[1]
  24 hour penetration (total micrograms base): 1.7 micrograms base
[1]; 5% HCTZ with 1% imidazole, Table 3 Study IX
  Imidazole enhanced the transdermal penetration (fold): five

## CC(C)Cc1ccc(C(C)C(=O)O)cc1 (centres unmarked) [IBU, IBUPROFEN, reference compound]
[1]; B + 5% drug + 0.5% imidazole (IMI), Table 3
  24 hour penetration (total micrograms base): 378.0 micrograms base
[1]; control: 5% of the drug alone in B, Table 3
  24 hour penetration (total micrograms base): 181.5 micrograms base
[1]; multiple of average control determination, B + 5% drug + 0.5% IMI, Table 3
  Increase in penetration relative to control: 2.1

## c1c[nH]cn1 [IMIDAZOLE, imidazole]
[1]; 2% TPL in B + 0.01% imidazole
  24 hour penetration of tripelennamine HCl (total micrograms base): 208 micrograms base
[1]; 2% TPL in B + 0.1% imidazole
  24 hour penetration of tripelennamine HCl (total micrograms base): 413 micrograms base
[1]; 2% TPL in B + 1.0% imidazole
  24 hour penetration of tripelennamine HCl (total micrograms base): 662 micrograms base
[1]; 2% TPL in B, imidazole up to 1.0%, Table 1
  TPL penetration increased as compared to the control: approximately 340%
[1]; multiple of average control determination, 2% TPL in B + 0.01% imidazole
  Increase in penetration relative to control: 1.1
[1]; multiple of average control determination, 2% TPL in B + 0.1% imidazole
  Increase in penetration relative to control: 2.1
[1]; multiple of average control determination, 2% TPL in B + 1.0% imidazole
  Increase in penetration relative to control: 3.4
[2]
  Increase in skin permeation of TPL: 3 fold

## CC(C)NCC(O)c1cc(O)cc(O)c1 (centres unmarked) [MET, METAPROTERENOL SULFATE, reference compound]
[1]
  24 hour penetration (total micrograms base): 47.6 micrograms base

## Cn1cc[nH]c1=S [METHIMIDAZOLE, methimazole, reference compound]
[1]
  24 hour penetration of tripelennamine HCl (total micrograms base): 301 micrograms base
  Increase in penetration relative to control: 3.5

## NCCCn1ccnc1 [N-(3-AMINOPROPYL) IMIDAZOLE, N-(3-aminopropyl)imidazole]
[1]
  24 hour penetration of tripelennamine HCl (total micrograms base): 457 micrograms base
  Increase in penetration relative to control: 2.5

## CCC(=O)n1ccnc1 [N-PROPIONYL IMIDAZOLE]
[1]
  24 hour penetration of tripelennamine HCl (total micrograms base): 453 micrograms base
  Increase in penetration relative to control: 2.5

## O=C(/C=C/c1ccccc1)n1ccnc1 [N-TRANS-CINNAMOYL]
[1]
  24 hour penetration of tripelennamine HCl (total micrograms base): 153 micrograms base
  Increase in penetration relative to control: 1.8

## c1ccc2c(CC3=NCCN3)cccc2c1 [NAP, NAPHAZOLINE HCL, reference compound]
[1]
  24 hour penetration (total micrograms base): 161 micrograms base
  Penetration enhanced by imidazole: 480%

## CNC[C@H](O)c1cccc(O)c1 [PHE, PHENYLEPHRINE HCL, reference compound]
[1]
  24 hour penetration (total micrograms base): 266 micrograms base

## Cc1ccc(/C(=C\CN2CCCC2)c2ccccn2)cc1 [TRP, TRIPROLIDINE HCL, reference compound]
[1]
  24 hour penetration (total micrograms base): 180 micrograms base
